In the test the test system is HeLa cells. Nature of the test: Measurement of the cell cycle inhibition in HeLa cells. Type of test: cell-based. The settings on record: HeLa B cells, 20 h incubation with compound; FACS ratio G0/G1 to G2/M vs DMSO; concentration at which 50% of cells are in cell cycle arrest. As to the method:
Measurement of the Cell Cycle Inhibition in HeLa Cells—Test Procedure:
HeLa B cells are grown in DMEM (Life Technologies Cat No 21969-035) supplemented with 10% Fetal Calf Serum (FCS, Life Technologies Cat No 10270-106) in 180 cm^2 Flasks at 37° C., 92% humidity and 7% CO2.
Cells are seeded at 5×10^4 cells per well in a 24-well plate. Twenty hours later the compounds are added such that the final concentration is 1×10^−6, 3.3×10^−7, 1.1×10^−7, 3.7×10^−8, 1.2×10^−8 and 1×10^−9 M in a final volume of 500 μl. DMSO alone is added to 6 wells as a control. Cells are incubated with the compounds as above for 20 h. Then cells are observed under the microscope to check for cell death, and the 24-well plate is then centrifuged at 1200 rpm for 5 min at 20° C., acceleration position 7 and break position 5 (Eppendorf centrifuge 5804R).
The supernatant is removed and the cells lysed with 0.5 ml RNase Buffer (10 mM NaCitrate, 0.1% Nonidet NP40, 50 μg/ml RNase, 10 μg/ml Propidium iodide) per well. The plates are then incubated for at least 30 min in the dark at RT and the samples then transferred to FACS tubes. Samples are measured in a FACS machine (Beckton Dickinson) at the following settings:
Instrument Settings of the FACS Calibur:
The ratio of cells in G0/G1-phase to G2/M phase is calculated and compared to the value for the controls (DMSO) only. Results are given in table 2 as the IC50 value calculated from the concentration curve plotted against the cell cycle ratio and indicate the compound concentration at which 50% of cells are in cell cycle arrest after treatment with the compound.
As usually defined, the IC50 is the concentration that inhibits the measured activity by half. On to `CC(C)=NOc1nc(Cl)c(-c2c(F)cc(F)cc2F)c(N[C@@H](C)C(F)(F)F)n1` [Example 204], for which the IC50 is 23 nM. For `CON=C(N)c1nc(Cl)c(-c2c(F)cccc2Cl)c(N[C@@H](C)C(F)(F)F)n1` [Example 214], the IC50 was 18 nM. The result for `CC1CCN(c2nc(-n3ccnn3)nc(Cl)c2-c2c(F)cccc2Cl)CC1` [Example 49] reads 10 nM. On to `CCC(C)Nc1nc(-n2cccn2)nc(Cl)c1-c1ccc(F)cc1F` (stereo not shown) [Example 105], for which the half-inhibitory concentration (IC50) was 45 nM. Under `Cc1nc(-n2ccnn2)nc(N[C@@H](C)C(F)(F)F)c1-c1c(F)cc(F)cc1F` [Example 157] stands 19 nM. The result for `C[C@H](Nc1nc(C(N)=NO)nc(Cl)c1-c1ccc(F)cc1Cl)C(F)(F)F` [Example 172] reads 21 nM; that for `CON=C(N)c1nc(Cl)c(-c2ccc(OC)cc2Cl)c(N[C@@H](C)C(C)C)n1` [Example 186], 33 nM. Under `COc1cc(F)c(-c2c(Cl)nc(-n3ccnn3)nc2N2CCC(C)CC2)c(F)c1` [Example 69] stands 21 nM; under `CON=C(N)c1nc(Cl)c(-c2c(F)cccc2F)c(N[C@@H](C)C(F)(F)F)n1` [Example 213], 51 nM. Consider `CC(C)[C@@H](C)Nc1nc(-n2cncn2)nc(Cl)c1-c1c(F)cc(F)cc1F` [Example 60], for which the 50% inhibitory concentration (IC50) worked out at 19 nM. In the case of `CCC(C)Nc1nc(-n2ccc(N)n2)nc(Cl)c1-c1c(F)cccc1Cl` (stereo not shown) [Example 148], the IC50 came out at 34 nM.

In the case of `C[C@H](Nc1nc(-n2cnc(SCc3ccccc3)n2)nc(Cl)c1-c1c(F)cc(F)cc1F)C(F)(F)F` [Example 151], the half-maximal inhibitory concentration (IC50) came out at 8.3 nM. Under `Cc1ccc(-c2c(Cl)nc(-n3cccn3)nc2N2CCC(C)CC2)c(F)c1` [Example 87] stands 39 nM; under `CC(C)Nc1nc(-c2ccccn2)nc(Cl)c1-c1c(F)cccc1F` [Example 83], 37 nM. Turning to `Cc1ccc(-c2c(Cl)nc(-n3ccc(N)n3)nc2NCC(F)(F)F)c(F)c1` [Example 149], the half-maximal inhibitory concentration (IC50) was found to be 41 nM. Turning to `CC(C)Nc1nc(-c2cnccn2)nc(Cl)c1-c1c(F)cccc1Cl` [Example 25], the IC50 was found to be 24 nM. The result for `CC(C)[C@H](C)Nc1nc(C(N)=NO)nc(Cl)c1-c1cc(F)ccc1Cl` [Example 201] reads 30 nM. Under `CC1CCCCN1c1nc(-n2cncn2)nc(Cl)c1-c1ccc(F)cc1F` (stereo not shown) [Example 141] stands 46 nM; under `CC1CCCN(c2nc(-n3cncn3)nc(Cl)c2-c2c(F)cc(F)cc2F)C1` (stereo not shown) [Example 44], 18 nM. The result for `C[C@H](Nc1nc(-n2cc(C#N)c(N)n2)nc(Cl)c1-c1c(F)cccc1Cl)C(F)(F)F` [Example 187] reads 39 nM; that for `CON=C(N)c1nc(Cl)c(-c2ccc(F)cc2Cl)c(N[C@@H](C)C(F)(F)F)n1` [Example 211], 24 nM; that for `CC1CCCCN1c1nc(-n2cccn2)nc(Cl)c1-c1c(F)cc(F)cc1F` (stereo not shown) [Example 96], 29 nM. For `CON=C(N)c1nc(Cl)c(-c2ccc([N+](=O)[O-])cc2Cl)c(N[C@@H](C)C(C)C)n1` [Example 219], the IC50 was determined as 29 nM. The result for `CCON=C(N)c1nc(Cl)c(-c2c(F)cc(F)cc2F)c(N[C@H](C)C(F)(F)F)n1` [Example 158] reads 44 nM; that for `CC(C)Nc1nc(-n2nccc2[N+](=O)[O-])nc(Cl)c1-c1c(F)cc(F)cc1F` [Example 23], 39 nM.

As for `C[C@H](Nc1nc(-c2ccccn2)nc(Cl)c1-c1c(F)cc(F)cc1F)C(F)(F)F` [Example 12], the half-inhibitory concentration (IC50) was found to be 6.9 nM. Under `CC1CCN(c2nc(-n3cccn3)nc(Cl)c2-c2c(F)cccc2F)CC1` [Example 115] stands 23 nM; under `C=CCN(C)c1nc(-n2ccnn2)nc(Cl)c1-c1c(F)cc(F)cc1F` [Example 206], 20 nM. The result for `CC1CCN(c2nc(-n3ccnn3)nc(Cl)c2-c2c(F)cccc2F)CC1` [Example 117] reads 19 nM. `CC1CCCN(c2nc(-n3ccnn3)nc(Cl)c2-c2c(F)cc(F)cc2F)C1` (stereo not shown) [Example 42]: the half-inhibitory concentration (IC50) came to 18 nM. Turning to `Fc1cc(F)c(-c2c(Cl)nc(-n3ccnn3)nc2NCC(F)(F)F)c(F)c1` [Example 212], the half-inhibitory concentration (IC50) came to 53 nM. The result for `Cc1cc(C)n(-c2nc(Cl)c(-c3c(F)cc(F)cc3F)c(N3CCC(C)CC3)n2)n1` [Example 30] reads 48 nM; that for `Cc1nc(-n2ccnn2)nc(N2CCC(C)CC2)c1-c1c(F)cccc1Cl` [Example 166], 42 nM. Under `CCCNc1nc(-n2nc(C)cc2C(=O)OCC)nc(Cl)c1-c1ccc(C)cc1F` [Example 160] stands 31 nM; under `Cc1cc(C)n(-c2nc(Cl)c(-c3c(F)cc(F)cc3F)c(NC(C)C)n2)n1` [Example 21], 25 nM; under `CC(C)Nc1nc(-c2ccccn2)nc(Cl)c1-c1c(F)cc(F)cc1F` [Example 2], 48 nM. Under `CC(=NO)c1nc(Cl)c(-c2c(F)cc(F)cc2F)c(N[C@@H](C)C(F)(F)F)n1` [Example 209] stands 18 nM. Turning to `CC(C)Nc1nc(-n2cc(Br)cn2)nc(Cl)c1-c1c(F)cccc1Cl` [Example 19], the concentration for half-maximal inhibition (IC50) was determined as 16 nM. The result for `Cc1cnn(-c2nc(Cl)c(-c3c(F)cc(F)cc3F)c(N[C@@H](C)C(F)(F)F)n2)c1Cl` [Example 155] reads 22 nM. As to `CCC(C)Nc1nc(-n2ccnn2)nc(Cl)c1-c1c(C)cccc1F` (stereo not shown) [Example 111], the IC50 stood at 29 nM. `CCC(C)Nc1nc(-n2ccnn2)nc(Cl)c1-c1c(F)cccc1Cl` (stereo not shown) [Example 107]: the IC50 was 39 nM.

`CCNc1nc(-n2cccn2)nc(Cl)c1-c1c(F)cc(F)cc1F` [Example 164]: the IC50 amounted to 48 nM. Under `C[C@H](Nc1nc(-n2ccc(C(F)(F)F)n2)nc(Cl)c1-c1c(F)cc(F)cc1F)C(F)(F)F` [Example 6] stands 17 nM. Regarding `C[C@H](Nc1nc(C#N)nc(Cl)c1-c1c(F)cc(F)cc1F)C(F)(F)F` [Example 10], the half-maximal inhibitory concentration (IC50) was 47 nM. For `CC(Nc1nc(-c2cccnn2)nc(Cl)c1-c1c(F)cc(F)cc1F)C(F)(F)F` (stereo not shown) [Example 78], the half-maximal inhibitory concentration (IC50) was determined as 21 nM.

`Cc1c[nH]n(-c2nc(Cl)c(-c3c(F)cc(F)cc3F)c(N[C@@H](C)C(F)(F)F)n2)c1=O` [Example 153]: the half-inhibitory concentration (IC50) worked out at 27 nM. The result for `CC(C)[C@@H](C)Nc1nc(-n2cnc([N+](=O)[O-])n2)nc(Cl)c1-c1c(F)cc(F)cc1F` [Example 89] reads 47 nM; that for `CCC(C)Nc1nc(-n2cccn2)nc(Cl)c1-c1c(C)cccc1F` (stereo not shown) [Example 109], 25 nM; that for `CCC(C)Nc1nc(-n2cccn2)nc(Cl)c1-c1ccc(C)cc1F` (stereo not shown) [Example 97], 13 nM. Under `CC1CCN(c2nc(C(N)=O)nc(Cl)c2-c2c(F)cccc2F)CC1` [Example 179] stands 53 nM. Under `Cc1nc(C(N)=NO)nc(N[C@@H](C)C(F)(F)F)c1-c1c(F)cc(F)cc1F` [Example 171] stands 54 nM.

On to `CC1CCN(c2nc(-n3cncn3)nc(Cl)c2-c2c(F)cccc2Cl)CC1` [Example 47], for which the 50% inhibitory concentration (IC50) was 26 nM. The result for `CCC(C)Nc1nc(C(N)=NO)nc(Cl)c1-c1c(F)cc(F)cc1F` (stereo not shown) [Example 146] reads 32 nM. Under `Cc1ccc(-c2c(Cl)nc(-n3cccn3)nc2N2CCCC(C)C2)c(F)c1` (stereo not shown) [Example 99] stands 39 nM; under `Cc1cnn(-c2nc(Cl)c(-c3c(F)cc(F)cc3F)c(NC(C)C)n2)c1` [Example 24], 50 nM. The result for `CC(C)[C@H](C)Nc1nc(C(N)=NO)nc(Cl)c1-c1c(F)cc(F)cc1F` [Example 145] reads 23 nM; that for `C[C@H](Nc1nc(-n2cc(C#N)cn2)nc(Cl)c1-c1c(F)cc(F)cc1F)C(F)(F)F` [Example 162], 17 nM; that for `CC1CCCN1c1nc(C(N)=NO)nc(Cl)c1-c1ccc(F)cc1Cl` (stereo not shown) [Example 208], 56 nM. For `COc1ccc(-c2c(Cl)nc(C(N)=NO)nc2N[C@@H](C)C(F)(F)F)c(Cl)c1` [Example 215], the IC50 is 14 nM.

On to `Fc1cc(F)c(-c2c(Cl)nc(-n3cccn3)nc2N2CCCCC2)c(F)c1` [Example 51], for which the IC50 came to 6.5 nM. Regarding `Fc1cc(F)c(-c2c(Cl)nc(-c3nccs3)nc2NC2CCCC2)c(F)c1` [Example 40], the concentration for half-maximal inhibition (IC50) is 23 nM. For `CNC(=O)c1nc(Cl)c(-c2c(F)cc(F)cc2F)c(N[C@@H](C)C(F)(F)F)n1` [Example 174], the half-maximal inhibitory concentration (IC50) was 42 nM. Under `C[C@@H](Nc1nc(C(N)=NO)nc(Cl)c1-c1c(F)cc(F)cc1F)C(F)(F)F` [Example 137] stands 1.5 nM; under `CC1CCCCN1c1nc(-n2cccn2)nc(Cl)c1-c1c(F)cccc1F` (stereo not shown) [Example 125], 38 nM. As to `CC(=O)NC(=O)c1nc(Cl)c(-c2c(F)cccc2F)c(N2CCC(C)CC2)n1` [Example 184], the IC50 worked out at 51 nM. As for `Cc1cnn(-c2nc(Cl)c(-c3c(F)cc(F)cc3F)c(N3CCCCC3)n2)c1` [Example 55], the IC50 stood at 26 nM.

Consider `C[C@H](Nc1nc(C(N)=NOC(F)F)nc(Cl)c1-c1c(F)cc(F)cc1F)C(F)(F)F` [Example 177], for which the IC50 is 21 nM.
